From patent US9428819B1, “Method for synthesizing noble metal nanoparticles using dead cancer cells” (KING SAUD UNIVERSITY, priority 2016, dated 2016)

Assays:
Test in all cases: Antimicrobial activity, diffusion Agar technique
Assay type in all cases: cell-based
Conditions in all cases: beyond the initial well diameter of 6 mm
[1] = system: Aspergillus fumigatus (RCMB 02567)
Protocol: (§1) The noble metal nanoparticles prepared by the present methods can be formulated into a composition effective as an antifungal and as an antibacterial agent (Gram positive and gram negative). […] The fungal and bacterial inhibition trial was conducted using the diffusion Agar technique. The data are expressed in the form of (M±S.D.): mean±standard deviation; wherein M represents the diameter of the inhibition zone, measured in millimeters (mm) beyond the initial well diameter of 6 mm.

[2] = system: Bacillis subtilis (RCMB 010068)
Protocol: as §1

[3] = system: Streptococcus pneumoniae (RCMB 010011)
Protocol: as §1

[4] = system: Escherichia coli (RCMB 010054)
Protocol: as §1

C[C@@H]1[C@H](O)[C@@H](C)/C=C/C=C/C=C/C=C/C=C/C=C/C=C/[C@H](O[C@@H]2O[C@H](C)[C@@H](O)[C@H](N)[C@@H]2O)C[C@@H]2O[C@](O)(C[C@@H](O)C[C@@H](O)[C@H](O)CC[C@@H](O)C[C@@H](O)CC(=O)O[C@H]1C)C[C@H](O)[C@H]2C(=O)O [Amphotericin B]
diameter of the inhibition zone (mean ± S.D.) [1]: 21.7 ± 1.5 mm

CC1(C)S[C@@H]2[C@H](NC(=O)[C@H](N)c3ccccc3)C(=O)N2[C@H]1C(=O)O [Ampicillin]
diameter of the inhibition zone (mean ± S.D.) [2]: 31.3 ± 1.5 mm
diameter of the inhibition zone (mean ± S.D.) [3]: 21.0 ± 1.0 mm

Gentamicin
diameter of the inhibition zone (mean ± S.D.) [4]: 20.3 ± 0.58 mm
